Source: patent US9606132B2, “Methods of monitoring adherence to lurasidone therapy” (Ameritox, Ltd., priority 2013, dated 2017)
Where “and” joins values, the source holds several entries; their conditions need not be identical. Equal values may be shown once.

Columns and labels:
CYP3A4 = biological target: T1, CYP3A4 (Homo sapiens, UniProt P08684); details: liver; cited from earlier work
T1 construct: host or cells: liver (in vivo metabolism, general statement)

[1] = cited from earlier work
[2] = Quantitative urine testing of patients prescribed Latuda for compliance over 5 days (Examples 2-7)
Description: The urine of 20 patients who were prescribed 20 mg of Latuda® (lurasidone) was tested for compliance over 5 days (Table 3).
Samples that were deemed invalid based on pH and/or specific gravity (n=7) were not included in calculations. Any drug/metabolite concentration that was less than the LOD/LOQ (5 ng/mL) as noted in Table 3 was also excluded from the calculations.
The urine of 12 patients who were prescribed 40 mg of Latuda® (lurasidone) was tested for compliance over 5 days (Table 5).
Samples that were deemed invalid based on pH and/or specific gravity (n=3) were not included in calculations. Any drug/metabolite concentration that was less than the LOD/LOQ (5 ng/mL) as noted in Table 5 was also excluded from the calculations.
The urine of 2 patients who was prescribed 60 mg of Latuda® (lurasidone) was tested for compliance over 5 days (Table 7).
The urine of 15 patients who were prescribed 80 mg of Latuda® (lurasidone) was tested for compliance over 5 days (Table 9).
Any drug/metabolite concentration that was less than the LOD/LOQ (5 ng/mL) as noted in Table 5 was also excluded from the calculations.
The urine of 1 patient who was prescribed 100 mg of Latuda® (lurasidone) was tested for compliance over 5 days (Table 11).
The urine of 6 patients who were prescribed 120 mg of Latuda® (lurasidone) was tested for compliance over 5 days (Table 13).
Samples that were deemed invalid based on pH and/or specific gravity (n=2) were not included in calculations.

[3] = cited from earlier work; remark: listed apart in the source
[4] = cited from earlier work; remark: listed apart in the source
[5] = Qualitative identification of lurasidone and metabolites in urine by Q-ToF MS/MS (Example 1); details: chronic lurasidone doses; for Lurasidone Metabolite Distribution in Human Urine (qualitative identification): individual subjects
Description: Urine samples of normally metabolizing human subjects who were known to be taking chronic doses of lurasidone were tested for the presence of lurasidone and eleven metabolites (excluding isomeric metabolites). Each patient sample was analyzed twice to ensure accuracy. Due to the high probability for false identification of isobars, MS/MS data was collected and selectively looked at to add confidence to the identification.

[6] = 20 mg/day, n 53 valid samples, values below LOD/LOQ excluded
[7] = 40 mg/day, n 33 valid samples, values below LOD/LOQ excluded
[8] = 80 mg/day, n 45, values below LOD/LOQ excluded

T1 sequence (P08684 whole entry): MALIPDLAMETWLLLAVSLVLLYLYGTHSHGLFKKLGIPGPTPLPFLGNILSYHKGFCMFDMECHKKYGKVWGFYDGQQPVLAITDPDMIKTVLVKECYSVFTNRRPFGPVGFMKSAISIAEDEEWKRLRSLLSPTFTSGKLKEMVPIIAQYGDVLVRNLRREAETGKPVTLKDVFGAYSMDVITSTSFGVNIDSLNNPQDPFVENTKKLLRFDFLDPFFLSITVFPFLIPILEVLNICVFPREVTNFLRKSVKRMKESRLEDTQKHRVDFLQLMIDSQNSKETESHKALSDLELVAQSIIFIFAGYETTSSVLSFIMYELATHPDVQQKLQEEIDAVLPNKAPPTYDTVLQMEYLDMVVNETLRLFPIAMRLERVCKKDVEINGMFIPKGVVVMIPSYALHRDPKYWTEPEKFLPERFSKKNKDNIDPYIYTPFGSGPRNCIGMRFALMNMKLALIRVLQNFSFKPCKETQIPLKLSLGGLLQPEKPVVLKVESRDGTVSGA

## Lurasidone
CYP3A4
  metabolizing enzyme: metabolized in the liver primarily by CYP3A4
[1]; excretion studies in humans
  excreted in the feces: 80%
  recovered in the urine: 9%
[1]; plasma, post oral dosing
  share of total radioactivity in plasma: 12%
[2]; 20 mg/day Latuda, Day 1, individual subjects, ** = below LOD/LOQ 5 ng/mL (negative)
  urine concentration: 9.7 ng/mL and 12.7 ng/mL and 9.0 ng/mL and 33.1 ng/mL and 24.6 ng/mL and 6.9 ng/mL and 6.0 ng/mL and 4.4* ** ng/mL and 9.1 ng/mL (2×) and 10.1 ng/mL and 5.7 ng/mL and 7.8 ng/mL and 12.9 ng/mL and 25.8 ng/mL and 13.8 ng/mL and 3.2** ng/mL and 83.1 ng/mL and 33.4 ng/mL and 12.0 ng/mL
[2]; 20 mg/day Latuda, Day 4, individual subjects, ** = below LOD/LOQ 5 ng/mL (negative)
  urine concentration: 149.0 ng/mL and 14.3 ng/mL and 18.9 ng/mL and 4.8** ng/mL and 14.0 ng/mL and 5.7 ng/mL and 4.7* ** ng/mL and 7.0 ng/mL (2×) and 2.9* ** ng/mL and 31.3 ng/mL and 13.0 ng/mL and 7.3 ng/mL and 24.3 ng/mL and 4.3** ng/mL and 12.5 ng/mL and 17.5 ng/mL and 5.8 ng/mL and 29.1 ng/mL and 8.0 ng/mL
[2]; 20 mg/day Latuda, Day 5, individual subjects, ** = below LOD/LOQ 5 ng/mL (negative)
  urine concentration: 9.6 ng/mL and 8.8 ng/mL and 13.2 ng/mL and 24.4 ng/mL and 26.2 ng/mL and 20.3 ng/mL and 6.5 ng/mL and 6.6 ng/mL and 6.0 ng/mL and 18.6 ng/mL and 12.1 ng/mL and 13.6 ng/mL and 5.4 ng/mL and 10.2 ng/mL and 11.0 ng/mL and 12.4 ng/mL and 5.2 ng/mL and 4.7** ng/mL and 23.2 ng/mL and 10.4 ng/mL
[2]; 20 mg/day, n 53 valid samples
  urine concentration, Maximum Value: 149.00 ng/mL
  urine concentration, Median Value: 12.45 ng/mL
[2]; [6]
  urine concentration, Average: 18.38 ng/mL
  urine concentration, Minimum Value: 5.70 ng/mL
[2]; 40 mg/day Latuda, Day 1, individual subjects, ** = below LOD/LOQ 5 ng/mL (negative)
  urine concentration: 30.5 ng/mL and 31.9 ng/mL and 63.9 ng/mL and 25.8 ng/mL and 4.4** ng/mL and 30.6 ng/mL and 9.8 ng/mL and 112.1 ng/mL and 14.0 ng/mL and 11.8 ng/mL and 129.1 ng/mL and 77.1 ng/mL
[2]; 40 mg/day Latuda, Day 4, individual subjects, ** = below LOD/LOQ 5 ng/mL (negative)
  urine concentration: 21.7 ng/mL and 25.6 ng/mL and 70.7 ng/mL and 69.3 ng/mL and 26.4 ng/mL and 1.0** ng/mL and 41.3 ng/mL and 14.5 ng/mL and 54.0 ng/mL and 32.8 ng/mL and 12.8 ng/mL and 38.0 ng/mL
[2]; 40 mg/day Latuda, Day 5, individual subjects, ** = below LOD/LOQ 5 ng/mL (negative)
  urine concentration: 37.9 ng/mL (2×) and 60.0 ng/mL and 33.4 ng/mL and 40.1 ng/mL and 1.3** ng/mL and 35.8 ng/mL and 7.2 ng/mL and 192.1 ng/mL and 11.3 ng/mL and 7.8 ng/mL and 56.4 ng/mL
[2]; 40 mg/day, n 33 valid samples
  urine concentration, Maximum Value: 192.10 ng/mL
  urine concentration, Median Value: 33.10 ng/mL
[2]; [7]
  urine concentration, Average: 44.23 ng/mL
  urine concentration, Minimum Value: 7.20 ng/mL
[2]; 60 mg/day Latuda, Day 1, individual subjects
  urine concentration: 16.3 ng/mL
[2]; 60 mg/day Latuda, Day 4, individual subjects
  urine concentration: 25.3 ng/mL and 36.8 ng/mL
[2]; 60 mg/day Latuda, Day 5, individual subjects
  urine concentration: 50.5 ng/mL
[2]; 60 mg/day, n 6
  urine concentration, Average: 30.30 ng/mL
  urine concentration, Maximum Value: 50.50 ng/mL
  urine concentration, Median Value: 31.05 ng/mL
  urine concentration, Minimum Value: 15.60 ng/mL
[2]; 80 mg/day, n 45
  urine concentration, Maximum Value: 556.60 ng/mL
  urine concentration, Median Value: 70.00 ng/mL
[2]; [8]
  urine concentration, Average: 120.26 ng/mL
  urine concentration, Minimum Value: 10.10 ng/mL
[2]; 100 mg/day, n 3
  urine concentration, Average: 73.97 ng/mL
  urine concentration, Maximum Value: 94.90 ng/mL
  urine concentration, Median Value: 64.50 ng/mL
  urine concentration, Minimum Value: 62.50 ng/mL
[2]; 120 mg/day, n 16 valid samples
  urine concentration, Average: 95.42 ng/mL
  urine concentration, Maximum Value: 260.10 ng/mL
  urine concentration, Median Value: 73.60 ng/mL
  urine concentration, Minimum Value: 12.40 ng/mL
[2]; patient prescribed 80 mg/day Latuda, subject II, day 1
  concentration in urine: 147.1 ng/mL
[2]; patient prescribed 80 mg/day Latuda, subject II, day 4
  concentration in urine: 144.8 ng/mL
[2]; patient prescribed 80 mg/day Latuda, subject II, day 5
  concentration in urine: 112.7 ng/mL
[2]; patient prescribed 80 mg/day Latuda, subject eleven, day 1
  concentration in urine: 556.6 ng/mL
[2]; patient prescribed 80 mg/day Latuda, subject eleven, day 4
  concentration in urine: 503.8 ng/mL
[2]; patient prescribed 80 mg/day Latuda, subject eleven, day 5
  concentration in urine: 264.0 ng/mL
[2]; patient prescribed 80 mg/day Latuda, subject fifteen, day 1
  concentration in urine: 138.5 ng/mL
[2]; patient prescribed 80 mg/day Latuda, subject fifteen, day 4
  concentration in urine: 83.8 ng/mL
[2]; patient prescribed 80 mg/day Latuda, subject fifteen, day 5
  concentration in urine: 67.6 ng/mL
[2]; patient prescribed 80 mg/day Latuda, subject five, day 1
  concentration in urine: 57.3 ng/mL
[2]; patient prescribed 80 mg/day Latuda, subject five, day 4
  concentration in urine: 69.6 ng/mL
[2]; patient prescribed 80 mg/day Latuda, subject five, day 5
  concentration in urine: 100.6 ng/mL
[2]; patient prescribed 80 mg/day Latuda, subject four, day 1
  concentration in urine: 175.2 ng/mL
[2]; patient prescribed 80 mg/day Latuda, subject four, day 4
  concentration in urine: 96.4 ng/mL
[2]; patient prescribed 80 mg/day Latuda, subject four, day 5
  concentration in urine: 116.3 ng/mL
[2]; patient prescribed 80 mg/day Latuda, subject nine, day 1
  concentration in urine: 52.6 ng/mL
[2]; patient prescribed 80 mg/day Latuda, subject nine, day 4
  concentration in urine: 43.7 ng/mL
[2]; patient prescribed 80 mg/day Latuda, subject nine, day 5
  concentration in urine: 38.9 ng/mL
[2]; patient prescribed 80 mg/day Latuda, subject nineteen, day 1
  concentration in urine: 210.7 ng/mL
[2]; patient prescribed 80 mg/day Latuda, subject nineteen, day 4
  concentration in urine: 70.4 ng/mL
[2]; patient prescribed 80 mg/day Latuda, subject nineteen, day 5
  concentration in urine: 16.1 ng/mL
[2]; patient prescribed 80 mg/day Latuda, subject one, day 1, values marked ** below LOD/LOQ of 5 ng/mL = negative result, * ion ratio criteria not met
  concentration in urine: 4.8** ng/mL
[2]; patient prescribed 80 mg/day Latuda, subject one, day 4
  concentration in urine: 52.0 ng/mL
[2]; patient prescribed 80 mg/day Latuda, subject one, day 5
  concentration in urine: 22.9 ng/mL
[2]; patient prescribed 80 mg/day Latuda, subject seventeen, day 1
  concentration in urine: 152.8 ng/mL
[2]; patient prescribed 80 mg/day Latuda, subject seventeen, day 4
  concentration in urine: 83.3 ng/mL
[2]; patient prescribed 80 mg/day Latuda, subject seventeen, day 5
  concentration in urine: 72.4 ng/mL
[2]; patient prescribed 80 mg/day Latuda, subject sixteen, day 1
  concentration in urine: 10.1 ng/mL
[2]; patient prescribed 80 mg/day Latuda, subject sixteen, day 4
  concentration in urine: 14.5 ng/mL
[2]; patient prescribed 80 mg/day Latuda, subject sixteen, day 5
  concentration in urine: 41.0 ng/mL
[2]; patient prescribed 80 mg/day Latuda, subject ten, day 1
  concentration in urine: 40.5 ng/mL
[2]; patient prescribed 80 mg/day Latuda, subject ten, day 4
  concentration in urine: 162.5 ng/mL
[2]; patient prescribed 80 mg/day Latuda, subject ten, day 5
  concentration in urine: 48.3 ng/mL
[2]; patient prescribed 80 mg/day Latuda, subject thirteen, day 1
  concentration in urine: 145.2 ng/mL
[2]; patient prescribed 80 mg/day Latuda, subject thirteen, day 4
  concentration in urine: 298.3 ng/mL
[2]; patient prescribed 80 mg/day Latuda, subject thirteen, day 5
  concentration in urine: 539.5 ng/mL
[2]; patient prescribed 80 mg/day Latuda, subject three, day 1
  concentration in urine: 59.5 ng/mL
[2]; patient prescribed 80 mg/day Latuda, subject three, day 4
  concentration in urine: 35.9 ng/mL
[2]; patient prescribed 80 mg/day Latuda, subject three, day 5
  concentration in urine: 69.5 ng/mL
[2]; patient prescribed 80 mg/day Latuda, subject twelve, day 1, values marked ** below LOD/LOQ of 5 ng/mL = negative result
  concentration in urine: 0.0** ng/mL
[2]; patient prescribed 80 mg/day Latuda, subject twelve, day 4
  concentration in urine: 32.9 ng/mL
[2]; patient prescribed 80 mg/day Latuda, subject twelve, day 5
  concentration in urine: 43.5 ng/mL
[2]; patient prescribed 80 mg/day Latuda, subject two, day 1
  concentration in urine: 23.0 ng/mL
[2]; patient prescribed 80 mg/day Latuda, subject two, day 4, values marked ** below LOD/LOQ of 5 ng/mL = negative result
  concentration in urine: 0.1** ng/mL
[2]; patient prescribed 80 mg/day Latuda, subject two, day 5
  concentration in urine: 36.7 ng/mL
[2]; patient prescribed 120 mg/day Latuda, subject eight, day 1
  concentration in urine: 148.7 ng/mL
[2]; patient prescribed 120 mg/day Latuda, subject eight, day 4
  concentration in urine: 260.1 ng/mL
[2]; patient prescribed 120 mg/day Latuda, subject eight, day 5, specimen validity (creatinine, specific gravity) not acceptable
  concentration in urine: 57.2 ng/mL
[2]; patient prescribed 120 mg/day Latuda, subject eighteen, day 1
  concentration in urine: 23.4 ng/mL
[2]; patient prescribed 120 mg/day Latuda, subject eighteen, day 4
  concentration in urine: 27.5 ng/mL
[2]; patient prescribed 120 mg/day Latuda, subject eighteen, day 5
  concentration in urine: 12.4 ng/mL
[2]; patient prescribed 120 mg/day Latuda, subject fourteen, day 1
  concentration in urine: 102.7 ng/mL
[2]; patient prescribed 120 mg/day Latuda, subject fourteen, day 4
  concentration in urine: 87.3 ng/mL
[2]; patient prescribed 120 mg/day Latuda, subject fourteen, day 5
  concentration in urine: 59.1 ng/mL
[2]; patient prescribed 120 mg/day Latuda, subject seven, day 1
  concentration in urine: 83.9 ng/mL
[2]; patient prescribed 120 mg/day Latuda, subject seven, day 4
  concentration in urine: 46.4 ng/mL
[2]; patient prescribed 120 mg/day Latuda, subject seven, day 5
  concentration in urine: 63.3 ng/mL
[2]; patient prescribed 120 mg/day Latuda, subject six, day 1, specimen validity (creatinine) not acceptable
  concentration in urine: 21.7 ng/mL
[2]; patient prescribed 120 mg/day Latuda, subject six, day 4, specimen validity (specific gravity) not acceptable
  concentration in urine: 23.7 ng/mL
[2]; patient prescribed 120 mg/day Latuda, subject six, day 5
  concentration in urine: 61.6 ng/mL
[2]; patient prescribed 120 mg/day Latuda, subject twenty, day 1
  concentration in urine: 126.2 ng/mL
[2]; patient prescribed 120 mg/day Latuda, subject twenty, day 4
  concentration in urine: 150.7 ng/mL
[2]; patient prescribed 120 mg/day Latuda, subject twenty, day 5
  concentration in urine: 251.7 ng/mL
[3]; days of dosing
  time to steady state serum concentrations: 7 days
[3]; in vivo
  mean elimination half-life: 18 h
[4]
  log P: 5.9
  pKa: 7.6
[5]
  detectability in human urine (Example 1): detected in the majority of the samples
[5]; Run 1
  Lurasidone Metabolite Distribution in Human Urine (qualitative identification): ✓* (5×) and ✓^ (4×)
[5]; Run 2
  Lurasidone Metabolite Distribution in Human Urine (qualitative identification): ✓^ (4×) and ✓* (5×)
